# B1: rhTRAIL: recombinant human TRAIL (R&D Systems) (protein, UniProt P50591 39-281, looked up)
# extracellular domain: TNELKQMQDKYSKSGIACFLKEDDSYWDPNDEESMNSPCWQVKWQLRQLVRKMILRTSEETISTVQEKQQNISPLVRERGPQRVAAHITGTRGRSNTLSSPNSKNEKALGRKINSWESSRSGHSFLSNLHLRNGELVIHEKGFYYIYSQTYFRFQEEIKENTKNDKQMVQYIYKYTSYPDPILLMKSARNSCWSKDAEYGLYSIYQGGIFELKENDRIFVSVTNEHLIDMDHEASFFGAFLVG
# modifications: extracellular domain
# Key:
# Type in all cases: cell-based, human
# [1] = test system: TRAIL; assay: TRAIL expression in hMSCs (real-time RT-PCR, Western, ELISA, IF)
# Procedure: (§1) Approximately 200 ng of total RNA extracted from cultured cells was used to synthesize double-stranded complementary DNA (cDNA) by reverse transcription (SuperScript III; Invitrogen). cDNA was analyzed by real-time PCR using TaqMan Universal PCR Master Mix (Applied Biosystems). For the assays, reactions were incubated at 50° C. for 2 minutes and at 95° C. for 10 minutes followed by 40 cycles at 95° C. for 15 seconds and 60° C. for 1 minute. For relative quantitation of gene expression, human-specific GAPDH primers and probe (Taq-Man Gene Expression Assays ID, Hs00266705_g1) were used. The other PCR primers and probes were human DKK3 (Hs00247426_m1), human TRAIL (TNFSF10: Hs00921974_m1) and human TLR3 (Hs01551078_m1) all purchased from the same source (Applied Biosystems).
# (§2) Cultured cells were sorted using FACS after CD90-PE staining. Sorted samples were lysed (Cell Extraction Buffer; Invitrogen) and sonicated for 15-20 seconds (Ultrasonic Processor, 130W; Cole-Parmer; Vernon Hills, Ill.). […] The samples were heated at 97° C. for 5 minutes. Denatured protein samples were separated by electrophoresis on polyacrylamide gels (NuPAGE® Bis-Tris Gels; Invitrogen) and proteins transferred to Invitrolon™ PVDF membrane (Pore size—0.45 μm; Invitrogen) using Novex® NuPAGE® SDS-PAGE Gel System (Invitrogen). Membranes were then blocked for 1 hour at room temperature (RT) using blocking buffer that contained 5% non-fat dry milk (Cell Signaling Technologies, Inc.) in Tris-buffered saline with 0.1% Tween-20 (TBST). After blocking, membranes were incubated overnight at 4° C. with primary antibodies that were diluted in 5% BSA in TBST. The membranes were washed with TBST three times for 5 minutes each, and incubated with secondary antibodies, which were diluted in blocking buffer, for 1 hour at RT. After secondary antibody incubation, the membranes were washed with TBST three times and developed using West-Q Chemiluminescent Substrate Kit (Gendepot, Inc.; Barker, Tex.) for 1 minute. Images were taken using Molecular Imager VersaDoc™ MP 4000 (Bio-rad Laboratories). The membranes were washed with TBST three times and stripped using Restore™ Western Blot Stripping buffer (Thermo Fisher Scientific, Inc.) for 15 minutes at 37° C., followed by three more washes with TBST. The membranes were blocked for 1 hour using blocking buffer and incubated with β-actin primary antibody conjugated with HRP (1:10,000) diluted in blocking buffer followed by imaging as described above. […]
# Conditioned media from cultured MDA and hMSCs were collected after 24 hour incubation. For the DKK-3 assay, culture media were filtered (Spin-X® Centrifuge Tube Filter, 0.22 μm; Corning, Inc) and the protein level was detected by ELISA (Human Dkk-3 DuoSet; R&D Systems). […]
# [2] = test system: MDA cells; assay: MDA cells incubated with agent alone (live cell counting, MTT, Annexin V/7AAD)
# Procedure: (§3) hMSCs were plated at 10^5 cells in CCM in 6-well plates and incubated for 4 hrs. For pre-activation, hMSCs were incubated at 37° C. for 24 hrs in 2% CM containing 10 ng/mL TNF-α. For co-culture, an equal number of MDA cells in 2% CM with or without TNF-α (10 ng/mL) were added to hMSC containing wells. For transwell cultures, hMSCs were plated at 10^5 cells in the upper compartment (Transwell, 0.4 μm pore size; Corning; Corning, N.Y.), while an equal number of MDA cells was plated in the lower compartment in 2% CM with or without TNF-α (10 ng/mL). After 24 hrs, supernatants and cells were collected. For some experiments, MDA cells were treated with 1 to 100 ng/mL doxorubicin (Sigma-Aldrich) in 2% CM for 24 his at 37° C., prior to co-culture with hMSCs. In other experiments, hMSCs were treated with either apoptotic MDA cells or 1 μg/mL Polyinosinic-Polycytidylic acid [Poly(I:C); Sigma-Aldrich; St. Louis, Mo.] with or without TNF-α (10 ng/ml) for 24 hrs in 2% CM.
# (§4) hMSCs and MDA cells from co-culture experiments were suspended in PBS and incubated with CD90-PE (Clone Thy1/310; Beckman Coulter) for 45 minutes on ice, washed with PBS by centrifugation, incubated at RT for 20 minutes with 300 ng/mL annexin V (AnnexinV-FITC Apoptosis Detection Kit; Sigma-Aldrich) and 4 μg/mL 7-aminoactinomycin D (7AAD; Sigma-Aldrich.), and analyzed by flow cytometry (Cytomics FC500; Beckman Coulter).
# [3] = test system: β-catenin; assay: β-catenin in MDA cells (IF staining); details: 24 hr incubation with rhDKK3
# Procedure: For immunofluorescence staining, hMSCs were cultured in CCM overnight in 150 mm diameter plates and replated at 10,000 cells/cm^2 in chambered slides (Lab Tek II Chamber Slide™ System; Nunc Thermo Scientific, Rochester, N.Y.). […] After co-culture, the cells were washed with PBS twice and fixed with either methanol for anti-TRAIL antibody or 4% PFA for all other antibodies. The slides were further processed for immuno-staining as described above. The antibodies used for immunochemistry were anti-human nuclei mouse monoclonal antibody (Millipore, Billerica, Mass.) anti-GFP-Alexa Fluor® rat monoclonal antibody (RQ2; MBL Co. Ltd, Woburn, Mass.), anti-human TRAIL rabbit polyclonal antibodies (C92B9; Cell Signaling) anti-human cyclin D1 mouse monoclonal antibody (DCS6; Cell Signaling), anti-human p21 mouse monoclonal antibody (DCS60; Cell Signaling) and anti-human β-catenin mouse monoclonal antibodies (BD Bioscience, Sparks, Md.). Alexa Fluor® antibodies (Invitrogen) were used for secondary antibodies.
# [4] = test system: MDA cells; assay: Co-culture of hMSCs and MDA cells (Annexin V/7AAD apoptosis, live cell counting)
# Procedure: as §3, §4
# hMSCs (5×10^4 cells/well in 6 well plate) were treated with either TLR3 antibody (5 μg/mL; eBioscience, Inc; San Diego, Calif.), TRAIL antibody (25 μg/mL; BD Biosciences, Inc; San Jose, Calif.), or normal mouse IgG (5 or 25 μg/mL; PeproTech, Inc; Rocky Hill, N.J.) for 30 minutes at 37° C. in 2% CM with or without TNF-α (10 ng/mL) prior to co-culture with an equal number of MDA cells for 24 hrs.
# [5] = test system: cyclin D1, cyclin D3 and p21; assay: Cyclin D1, cyclin D3 and p21 in MDA cells (Western blot, IF staining); details: TNF-α alone
# Procedure: as §2, with “Laboratories).” for “Laboratories). The membranes were washed with TBST three times and stripped using Restore™ Western Blot Stripping buffer (Thermo Fisher Scientific, Inc.) for 15 minutes at 37° C., followed by three more washes with TBST. The membranes were blocked for 1 hour using blocking buffer and incubated with β-actin primary antibody conjugated with HRP (1:10,000) diluted in blocking buffer followed by imaging as described above.”
# [6] = test system: DKK3; assay: DKK3 expression in hMSCs (ELISA); details: 10 ng/mL TNF-α
# Procedure: Conditioned media from cultured MDA and hMSCs were collected after 24 hour incubation. For the DKK-3 assay, culture media were filtered (Spin-X® Centrifuge Tube Filter, 0.22 μm; Corning, Inc) and the protein level was detected by ELISA (Human Dkk-3 DuoSet; R&D Systems). For detection of TRAIL, the filtered medium was concentrated to 4 times (Vivaspin 6 (5 kDa MWCO; GE Healthcare; UK) and assayed by ELISA (Human TRAIL Quantikine ELISA kit; R&D Systems).
# [7] = test system: TLR3; assay: TLR3 expression in hMSCs (real-time RT-PCR); details: incubation with TNF-α
# Procedure: as §1
# hMSCs and MDA cell were separated by cell sorting (FACS, MoFlo™ XDP; Beckman Coulter; Brea, Calif.) after labeling with CD90-PE for 45 minutes on ice. RNA was extracted using RNeasy Mini Kit (QIAGEN). See Supplemental Information for real time RT-PCR analysis.
# [8] = test system: U87; assay: Live cell number / cell death of U87 cells; details: 100 ng/ml rhTRAIL, 24 hour; compared with MDA cells
molecule,measurement,setting,value
DNase,increase of TRAIL in hMSCs by apoptotic MDA cells pre-treated with enzyme,[1]; 24 hr incubation,inhibited the increase of TRAIL in hMSCs
IFN-γ: pro-inflammatory agent,up-regulation of TRAIL in hMSCs,"[1]; 24 hour incubation of hMSCs with the agent, real time RT-PCR",30 fold
rhDKK-3: recombinant human DKK3 (R&D Systems),"proliferation of MDA cells (MTT, live cell number)",[2]; 24 hr incubation with rhDKK3,decreased
same,viability of MDA cells (Annexin V & 7AAD),"[2]; rhDKK3 5 ng/mL, 24 hr",without affecting the viability of MDA cells
same,number of β-catenin expressing MDA,[3],decreased the number of β-catenin expressing MDA
TNF-α,concentration adequate to activate hMSCs to induce MDA apoptosis,[4]; co-culture,0.1 ng/mL
same,activation of hMSCs to induce apoptosis of MDA cells in co-culture,[4]; over the range of 0.1 to 10 ng/mL,concentration dependent
same,"expression of cyclin D1, D3 and p21 in MDA cells",[5],had no significant effect
same,expression of DKK3 protein in hMSCs,[6],up-regulated
same,expression of TRAIL protein in hMSCs,[1]; 10 ng/mL TNF-α,up-regulated
same,expression of TLR3 in hMSCs,[7],increased by incubation with TNF-α
COc1cccc2c1C(=O)c1c(O)c3c(c(O)c1C2=O)C[C@@](O)(C(=O)CO)C[C@@H]3O[C@H]1C[C@H](N)[C@H](O)[C@H](C)O1 [doxorubicin],apoptosis of MDA cells,[2]; 100 ng/mL (0.2 μM),did not induce apoptosis
same,proliferation of MDA (recovery of live cells),"[2]; 100 ng/mL (0.2 μM), 24 hrs",suppressed proliferation of MDA
same,number of live MDA cells recovered from cultures,"[2]; after 24 hrs, 1 to 100 ng/mL, dose dependent",decreased the number of live MDA cells
Polyinosinic-Polycytidylic acid [poly(I:C)],MDA apoptosis when agent added to co-cultures,"[4]; poly(I:C)/TNF-α pre-activated hMSCs, 24 hr",small but statistically significant increase in MDA apoptosis
same,expression of TRAIL in hMSCs,"[1]; 1 μg/mL Poly(I:C), 24 hrs",increased expression of TRAIL in hMSCs
B1,sensitivity of U87 cells (cell death),[8],less sensitive to rhTRAIL than MDA cells
